The results in this text go back to patent US20240376094A2, “SELECTIVE BCL-XL PROTAC COMPOUNDS AND METHODS OF USE” (Les Laboratoires Servier, priority 2021, published 2024).

The structures appear in SMILES notation. pIC50: −log10 of the molar value.

What all share (format): cell-based
Experiment [1] concerns the target T1, Bcl-xL (Homo sapiens, UniProt Q07817).
T1 construct: Measured levels of Bcl-xL protein of HCT116 cells treated with the tested compounds; host or cells: HCT116
Kind of experiment: HCT116 Bcl-xL degradation, capillary-based immunoassay (WES). As to conditions: HCT116, 24 h, 9-point serial dilution. The method in brief:
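Bcl-xL protein level by capillary WES immunoassay in HCT116 lysates, as % of untreated after cofilin normalization. Compound exposure was 24 h at 10 and 100 nM and/or a 9-point series, in quadruplicate. Four-parameter fitting gave the DC50.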

Experiment [2] concerns EBC-1 lung cancer cell line. The experiment in a line: EBC-1 cell proliferation, CellTiter-Glo assay. As to conditions: Homo sapiens, 120 h; Ebc-1 cell viability, CTG assay, 5 days of treatment; read-out: CTG 5 day Ebc1 GI50. Summed up:
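CellTiter-Glo read-out after 5-day compound treatment, normalised to untreated cells, with GI50 derived by four-parameter logistic regression. Ten concentrations spanning 0.508 nM–10 μM were added to 1000 EBC-1 cells per well the day after seeding. Assays required at least one cell doubling versus Day 0.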
A general note: In ATP-based viability assays light output follows the ATP content of the culture.

Experiment [3] deals with T2, HiBiT-tagged BCL-xL (Homo sapiens, UniProt Q07817).
T2 construct: expressed in transfected cells; host or cells: NCI-H1650 (ATCC No. CRL-5883), engineered HiBiT cell line
T2 sequence (Q07817 whole entry): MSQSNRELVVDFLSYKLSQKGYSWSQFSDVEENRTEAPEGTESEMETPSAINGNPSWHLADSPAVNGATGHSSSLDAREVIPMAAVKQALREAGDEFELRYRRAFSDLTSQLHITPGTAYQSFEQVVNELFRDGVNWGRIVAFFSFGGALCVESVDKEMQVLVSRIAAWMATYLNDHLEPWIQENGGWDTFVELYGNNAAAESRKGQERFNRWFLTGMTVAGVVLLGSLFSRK
Kind of experiment: NCI-H1650 BCL-xL protein levels, Nano-Glo HiBiT Lytic Detection. As to conditions: NCI-H1650 expressing HiBiT-tagged BCL-xL, overnight incubation, read-out: Bcl-xl HIBIT NCIH1650 DC50. The method in brief: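 HiBiT luminescence after cell lysis with LgBiT/furimazine reagent reported BCL-xL levels, expressed relative to untreated wells and fitted with a four-parameter logistic equation. Engineered NCI-H1650 cells were exposed overnight at 37° C to compound at final 0.508 nM-10 μM (10 points, triplicate plates).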
Background: HiBiT is a short tag that completes a luciferase, so light tracks the accessible tagged protein.

The test system of experiment [4] is MOLT-4 cells. The experiment in a line: MOLT-4 cell viability, CTG assay. To be noted: Homo sapiens, MOLT-4, 48 h. The method in brief:
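Viability read as total ATP luminescence (CTG) after 48 h compound treatment, 11 points at 5-fold spacing in triplicate, cells in RPMI 1640/10% FBS. IC50 is the concentration halving signal relative to control, four-parameter fit, averaged over at least 2 experiments.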

T1 sequence (Q07817 whole entry): as above

Turning to `Cc1ncsc1-c1ccc([C@H](C)NC(=O)[C@@H]2C[C@@H](O)CN2C(=O)[C@@H](NC(=O)CCOCCN(C)CCOC23CC4(C)CC(C)(CC(Cn5ncc(-c6ccc(N7CCCc8c7nnc(Nc7nc9ccccc9s7)c8C)nc6C(=O)O)c5C)(C4)C2)C3)C(C)(C)C)cc1` [Example 103, 6-[3-(1,3-benzothiazol-2-ylamino)-4-methyl-6,7-dihydro-5H-pyrido[2,3-c]pyridazin-8-yl]-3-[1-[[3-[2-[2-[3-[[(1S)-1-[(2S,4R)-4-hydroxy-2-[[(1S)-1-[4-(4-methylthiazol-5-yl)phenyl]ethyl]carbamoyl]pyrrolidine-1-carbonyl]-2,2-dimethyl-propyl]amino]-3-oxo-propoxy]ethyl-methyl-amino]ethoxy]-5,7-dimethyl-1-adamantyl]methyl]-5-methyl-pyrazol-4-yl]pyridine-2-carboxylic acid], the DC50 in experiment [1] was 0.0136 µM; in experiment [3], more than 1.67 µM. In experiment [2], the GI50 is 0.378 µM. In experiment [4], this compound showed a pIC50 of 7.20.
For `Cc1ncsc1-c1ccc([C@H](C)NC(=O)[C@@H]2C[C@@H](O)CN2C(=O)[C@@H](NC(=O)C2CCN(C(=O)CCCCCCCN(C)CCOC34CC5(C)CC(C)(CC(Cn6ncc(-c7ccc(N8CCCc9c8nnc(Nc8nc%10ccccc%10s8)c9C)nc7C(=O)O)c6C)(C5)C3)C4)CC2)C(C)(C)C)cc1` [Example 81, 6-[3-(1,3-benzothiazol-2-ylamino)-4-methyl-6,7-dihydro-5H-pyrido[2,3-c]pyridazin-8-yl]-3-[1-[[3-[2-[[8-[4-[[(1S)-1-[(2S,4R)-4-hydroxy-2-[[(1S)-1-[4-(4-methylthiazol-5-yl)phenyl]ethyl]carbamoyl]pyrrolidine-1-carbonyl]-2,2-dimethyl-propyl]carbamoyl]-1-piperidyl]-8-oxo-octyl]-methyl-amino]ethoxy]-5,7-dimethyl-1-adamantyl]methyl]-5-methyl-pyrazol-4-yl]pyridine-2-carboxylic acid], in that order: more than 0.316 µM, more than 1.67 µM, 0.203 µM and 7.82.
For `Cc1ncsc1-c1ccc(CNC(=O)[C@@H]2C[C@@H](O)CN2C(=O)[C@@H](NC(=O)C2(F)CC2)C(C)(C)C)c(OCCCCCCCCCCCN(C)CCOC23CC4(C)CC(C)(CC(Cn5ncc(-c6ccc(N7CCCc8c7nnc(Nc7nc9ccccc9s7)c8C)nc6C(=O)O)c5C)(C4)C2)C3)c1` [Example 76, 6-[3-(1,3-benzothiazol-2-ylamino)-4-methyl-6,7-dihydro-5H-pyrido[2,3-c]pyridazin-8-yl]-3-[1-[[3-[2-[11-[2-[[[(2S,4R)-1-[(2S)-2-[(1-fluorocyclopropanecarbonyl)amino]-3,3-dimethyl-butanoyl]-4-hydroxy-pyrrolidine-2-carbonyl]amino]methyl]-5-(4-methylthiazol-5-yl)phenoxy]undecyl-methyl-amino]ethoxy]-5,7-dimethyl-1-adamantyl]methyl]-5-methyl-pyrazol-4-yl]pyridine-2-carboxylic acid], in that order: 0.00028 µM, 0.003 µM, 0.134 µM and 8.08.
For `Cc1ncsc1-c1ccc(CNC(=O)[C@@H]2C[C@@H](O)CN2C(=O)[C@@H](NC(=O)C2(F)CC2)C(C)(C)SCCCCCCCCCCCCCN(C)CCOC23CC4(C)CC(C)(CC(Cn5ncc(-c6ccc(N7CCCc8c7nnc(Nc7nc9ccccc9s7)c8C)nc6C(=O)O)c5C)(C4)C2)C3)cc1` [Example 118, 6-[3-(1,3-benzothiazol-2-ylamino)-4-methyl-6,7-dihydro-5H-pyrido[2,3-c]pyridazin-8-yl]-3-[1-[[3-[2-[13-[(2R)-2-[(1-fluorocyclopropanecarbonyl)amino]-3-[(2S,4R)-4-hydroxy-2-[[4-(4-methylthiazol-5-yl)phenyl]methylcarbamoyl]pyrrolidin-1-yl]-1,1-dimethyl-3-oxo-propyl]sulfanyltridecyl-methyl-amino]ethoxy]-5,7-dimethyl-1-adamantyl]methyl]-5-methyl-pyrazol-4-yl]pyridine-2-carboxylic acid], in that order: more than 0.316 µM, more than 1.67 µM, 0.084 µM and 8.11.
On to `Cc1ncsc1-c1ccc([C@H](C)NC(=O)[C@@H]2C[C@@H](O)CN2C(=O)[C@@H](NC(=O)CCCCCCCCCCCCCCCCN(C)CCOC23CC4(C)CC(C)(CC(Cn5ncc(-c6ccc(N7CCCc8c7nnc(Nc7nc9ccccc9s7)c8C)nc6C(=O)O)c5C)(C4)C2)C3)C(C)(C)C)cc1` [Example 145, 6-[3-(1,3-benzothiazol-2-ylamino)-4-methyl-6,7-dihydro-5H-pyrido[2,3-c]pyridazin-8-yl]-3-[1-[[3-[2-[[17-[[(1S)-1-[(2S,4R)-4-hydroxy-2-[[(1S)-1-[4-(4-methylthiazol-5-yl)phenyl]ethyl]carbamoyl]pyrrolidine-1-carbonyl]-2,2-dimethyl-propyl]amino]-17-oxo-heptadecyl]-methyl-amino]ethoxy]-5,7-dimethyl-1-adamantyl]methyl]-5-methyl-pyrazol-4-yl]pyridine-2-carboxylic acid], for which the DC50 in experiment [1] was 0.00217 µM; in experiment [3] it was 0.002 µM. Further, the GI50 in experiment [2] came to 0.001 µM. Further, the pIC50 in experiment [4] is 8.62.
For `Cc1ncsc1-c1ccc(CNC(=O)[C@@H]2C[C@@H](O)CN2C(=O)[C@@H](NC(=O)C2(F)CC2)C(C)(C)C)c(OCCCCCCCCCCCCCN(C)CCOC23CC4(C)CC(C)(CC(Cn5ncc(-c6ccc(N7CCCc8c7nnc(Nc7nc9ccccc9s7)c8C)nc6C(=O)O)c5C)(C4)C2)C3)c1` [Example 85, 6-[3-(1,3-benzothiazol-2-ylamino)-4-methyl-6,7-dihydro-5H-pyrido[2,3-c]pyridazin-8-yl]-3-[1-[[3-[2-[13-[2-[[[(2S,4R)-1-[(2S)-2-[(1-fluorocyclopropanecarbonyl)amino]-3,3-dimethyl-butanoyl]-4-hydroxy-pyrrolidine-2-carbonyl]amino]methyl]-5-(4-methylthiazol-5-yl)phenoxy]tridecyl-methyl-amino]ethoxy]-5,7-dimethyl-1-adamantyl]methyl]-5-methyl-pyrazol-4-yl]pyridine-2-carboxylic acid], in that order: 0.000291 µM, 0.005 µM, 0.064 µM and 8.38.
For `Cc1ncsc1-c1ccc([C@H](C)NC(=O)[C@@H]2C[C@@H](O)CN2C(=O)[C@@H](NC(=O)CCOCCCCCCN(C)CCOC23CC4(C)CC(C)(CC(Cn5ncc(-c6ccc(N7CCCc8c7nnc(Nc7nc9ccccc9s7)c8C)nc6C(=O)O)c5C)(C4)C2)C3)C(C)(C)C)cc1` [Example 108, 6-[3-(1,3-benzothiazol-2-ylamino)-4-methyl-6,7-dihydro-5H-pyrido[2,3-c]pyridazin-8-yl]-3-[1-[[3-[2-[6-[3-[[(1S)-1-[(2S,4R)-4-hydroxy-2-[[(1S)-1-[4-(4-methylthiazol-5-yl)phenyl]ethyl]carbamoyl]pyrrolidine-1-carbonyl]-2,2-dimethyl-propyl]amino]-3-oxo-propoxy]hexyl-methyl-amino]ethoxy]-5,7-dimethyl-1-adamantyl]methyl]-5-methyl-pyrazol-4-yl]pyridine-2-carboxylic acid], in that order: more than 0.316 µM, more than 1.67 µM, 0.081 µM and 8.01.
For `Cc1ncsc1-c1ccc(CNC(=O)[C@@H]2C[C@@H](O)CN2C(=O)[C@@H](NC(=O)C2(F)CC2)C(C)(C)C)c(OCCCCCCCCCN(C)CCOC23CC4(C)CC(C)(CC(Cn5ncc(-c6ccc(N7CCCc8c7nnc(Nc7nc9ccccc9s7)c8C)nc6C(=O)O)c5C)(C4)C2)C3)c1` [Example 72, 6-[3-(1,3-benzothiazol-2-ylamino)-4-methyl-6,7-dihydro-5H-pyrido[2,3-c]pyridazin-8-yl]-3-[1-[[3-[2-[9-[2-[[[(2S,4R)-1-[(2S)-2-[(1-fluorocyclopropanecarbonyl)amino]-3,3-dimethyl-butanoyl]-4-hydroxy-pyrrolidine-2-carbonyl]amino]methyl]-5-(4-methylthiazol-5-yl)phenoxy]nonyl-methyl-amino]ethoxy]-5,7-dimethyl-1-adamantyl]methyl]-5-methyl-pyrazol-4-yl]pyridine-2-carboxylic acid], in that order: 0.0133 µM, more than 1.67 µM, 0.179 µM and 7.78.

Usually GI50 stands for the concentration giving 50% growth inhibition. A word on the pIC50: it is the negative decadic logarithm of the IC50, by convention in mol/L. A low value points to a high IC50.
